Measurements: patent publication US6787315B2, “Methods for identifying ligand binding sites in a biomolecule” (priority 2001, dated 2004)

What was measured:
[1] = test system: 16S RNA (27-mer RNA model of the prokaryotic A-site 16S RNA); experiment: ESI-FT-ICR MS ligand binding to unmodified 27-mer 16S RNA; set-up: species or system E. coli
Method: (§1) The following examples illustrate preferred embodiments of the present invention using mass spectrometry. Experiments were performed using a 7.0 Tesla Fourier transform ion cyclotron resonance (FT-ICR) mass spectrometer with an electrospray ionization source operating in the negative mode. A −3000 V difference was employed between the spray tip and the inlet capillary to generate the electrospray. Samples were introduced at a flow rate of 1.5 uL/min using a Harvard syringe pump and a 50 uL glass syringe. The desolvation of the electrospray droplets was aided by a flow of countercurrent gas at 1 L/min. Ions were accumulated for 1.0 sec in an intermediate hexapole ion storage region at 1.0×10^−5 mbar. Following transfer to the FT-ICR analysis cell, the image current was measured over a mass range of 500-4000 m/z. Typically, a total of 32 transients containing 512 kbytes were summed prior to Fourier transformation. The m/z values were calibrated on the signal from the [M-5H^+]^5− charge state of the free RNA at 1726.509.
An aqueous solution containing 100 mM ammonium acetate buffer (pH 7.0), 33% isopropyl alcohol, gentamicin (2 μM, present in three forms), 16S RNA (2.5 μM) and a modified 16S RNA (2.5 μM) was prepared. Modified 27-mer 16S RNA contained a 5-iodouridine residue at position 13 in the UUCG tetraloop (See FIG. 1). The resulting mass spectra (see FIG. 3, upper spectrum) contained identifiable peaks corresponding to free 16S RNA (m/z 1726.5), free modified 16S RNA(5IUtetra; m/z 1750.7), 16S complexed with the three forms of gentamicin present in the sample (16S+genta; m/z 1816-1825), and 16S(5IUtetra) complexed with the three forms of gentamicin (5IUtetra+genta; m/z 1841-1849). The peaks were integrated and ion abundances determined. Fractions of 16S+genta and 5IUtetra+genta complexes were determined to be 70.4% and 68.2±1% for the free 16S RNA and 5IUtetraRNA, respectively.
An aqueous solution containing 100 mM ammonium acetate buffer (pH 7.0), 33% isopropyl alcohol, gentamicin (2 μM), 16S RNA (2.5 μM) and a modified 16S RNA (2.5 μM) was prepared. Modified 27-mer 16S RNA contained a 5-iodouridine residue at position U1406 at the position of a U-U mismatch base pair (E. coli numbering system). The resulting mass spectra (see FIG. 3, lower spectrum) contained identifiable peaks corresponding to free 16S RNA (m/z 1726.5), free modified 16S RNA(5IU1406; m/z 1750.7), 16S complexed with the three forms of gentamicin present in the sample (16S+genta; m/z 1816-1825), and 16S(5IU1406) complexed with the three forms of gentamicin (5IU1406+genta; m/z 1841-1849). The peaks were integrated and ion abundances determined. Fractions of 16S+genta and 5IU1406+genta complexes were determined to be 66.8% and 28.1±1% for the free 16S RNA and 5IU1406 RNA, respectively.
An aqueous solution containing 50 mM ammonium acetate buffer (pH 7.0), 33% isopropyl alcohol, ribostamycin (2.5 μM), 16S RNA (2.5 μM) and a modified 16S RNA (2.5 μM) was prepared. […] The resulting mass spectra (see FIG. 4) contained identifiable peaks corresponding to free 16S RNA (m/z 1726.5), free modified 16S RNA(5IU 1495; m/z 1821.4), 16S complexed with ribostamycin present in the sample (16S+ribost; m/z 1818.6), and 16S(5IU1495) complexed with ribostamycin (5IU1495+ribost; m/z 1912.3). The peaks were integrated and ion abundances determined. Fractions of 16S+ribost and 5IU1495+ribost complexes were determined to be 67.6% and 29.9±1% for the free 16S RNA and 5IU1495 RNA, respectively.
An aqueous solution containing 100 mM ammonium acetate buffer (pH 7.0), 33% isopropyl alcohol, gentamicin (1 μM), 16S RNA (5 μM) and a modified 16S RNA (5.5 μM) was prepared. Modified 27-mer 16S RNA contained a 3′-phosphorothioate residue at position G1491 at the position of a G-C base pair (E. coli numbering system) and a C12O6 PEG mass tag off the 5′-hydroxyl group. Mass spectra were obtained using the standard protocol described above. […]

[2] = test system: modified 16S RNA (5′-PS-A1492; 3′-phosphorothioate at A1492, C12O6 PEG mass tag); experiment: ESI-FT-ICR MS ligand binding to 27-mer 16S RNA modified at A1492; set-up: species or system E. coli
Method: as §1
An aqueous solution containing 100 mM ammonium acetate buffer (pH 7.0), 33% isopropyl alcohol, gentamicin (1 μM), 16S RNA (5 μM) and a modified 16S RNA (5.5 μM) was prepared. […] The peaks from the complexes formed from the lowest mass form of gentamicin were integrated and ion abundances determined. Fractions of 16S+genta and 5′-PS-A1492+genta complexes were determined to be 0.121 and 0.118±0.01% for the free 16S RNA and 5′-PS-A1492 RNA, respectively.
An aqueous solution containing 100 mM ammonium acetate buffer (pH 7.0), 33% isopropyl alcohol, ribostamycin (1 μM), 16S RNA (5 μM) and a modified 16S RNA (5.5 μM) was prepared. […] The peaks from the complexes formed between ribostamycin and the RNA were integrated and ion abundances determined. Fractions of 16S+ribost and 5′-PS-A1492+ribost complexes were determined to be 0.101 and 0.082±0.005% for the free 16S RNA and 5′-PS-A1492 RNA, respectively.

[3] = Example 6: gentamicin 1 μM (lowest mass form integrated), 16S RNA 5 μM with 5′-PS-A1492 RNA 5.5 μM, 100 mM ammonium acetate pH 7.0, 33% isopropyl alcohol

Molecule	Fraction of 16S+genta complex ([1]; Example 1: gentamicin 2 μM (three forms), 16S RNA 2.5 μM with 5IUtetra RNA 2.5 μM, 100 mM ammonium acetate pH 7.0, 33% isopropyl alcohol) [%]	Fraction of 16S+genta complex ([1]; Example 2: gentamicin 2 μM, 16S RNA 2.5 μM with 5IU1406 RNA 2.5 μM, 100 mM ammonium acetate pH 7.0, 33% isopropyl alcohol) [%]	Fraction of 16S+genta complex ([1]; Example 4: gentamicin 1 μM (lowest mass form integrated), 16S RNA 5 μM with 5′-PS-G1491 RNA 5.5 μM, 100 mM ammonium acetate pH 7.0, 33% isopropyl alcohol) [%]	Fraction of 16S+genta complex [1, 3] [%]	Amount of 5′-PS-A1492+genta as % of the amount of 16S+genta ([2]; Example 6: gentamicin 1 μM) [%]	Fraction of 5′-PS-A1492+genta complex [2, 3]	Fraction of 16S+ribost complex ([1]; Example 3: ribostamycin 2.5 μM, 16S RNA 2.5 μM with 5IU1495 RNA 2.5 μM, 50 mM ammonium acetate pH 7.0, 33% isopropyl alcohol) [%]	Fraction of 16S+ribost complex ([1]; Example 5: ribostamycin 1 μM, 16S RNA 5 μM with 5′-PS-G1491 RNA 5.5 uM, 100 mM ammonium acetate pH 7.0, 33% isopropyl alcohol) [%]	Fraction of 16S+ribost complex ([1]; Example 7: ribostamycin 1 μM, 16S RNA 5 μM with 5′-PS-A1492 RNA 5.5 μM, 100 mM ammonium acetate pH 7.0, 33% isopropyl alcohol) [%]	Amount of 5′-PS-A1492+ribost as % of the amount of 16S+ribost ([2]; Example 7: ribostamycin 1 μM) [%]
gentamicin	70.4	66.8	0.127	0.121	97	0.118±0.01 fraction (0–1)				
NC[C@H]1O[C@H](O[C@H]2[C@H](O[C@@H]3O[C@H](CO)[C@@H](O)[C@H]3O)[C@@H](O)[C@H](N)C[C@@H]2N)[C@H](N)[C@@H](O)[C@@H]1O [ribostamycin]							67.6	0.105	0.101	80
